According to paper PMC4304211 (Bioorganic & medicinal chemistry, 2013):

Target: STAT3 (Homo sapiens, UniProt P40763)
Assay: fluorescence polarization competition, single concentration […]
Format: binding
Conditions: read-out: % inhibition at 500 μM

Sequence of STAT3 (P40763 2-770): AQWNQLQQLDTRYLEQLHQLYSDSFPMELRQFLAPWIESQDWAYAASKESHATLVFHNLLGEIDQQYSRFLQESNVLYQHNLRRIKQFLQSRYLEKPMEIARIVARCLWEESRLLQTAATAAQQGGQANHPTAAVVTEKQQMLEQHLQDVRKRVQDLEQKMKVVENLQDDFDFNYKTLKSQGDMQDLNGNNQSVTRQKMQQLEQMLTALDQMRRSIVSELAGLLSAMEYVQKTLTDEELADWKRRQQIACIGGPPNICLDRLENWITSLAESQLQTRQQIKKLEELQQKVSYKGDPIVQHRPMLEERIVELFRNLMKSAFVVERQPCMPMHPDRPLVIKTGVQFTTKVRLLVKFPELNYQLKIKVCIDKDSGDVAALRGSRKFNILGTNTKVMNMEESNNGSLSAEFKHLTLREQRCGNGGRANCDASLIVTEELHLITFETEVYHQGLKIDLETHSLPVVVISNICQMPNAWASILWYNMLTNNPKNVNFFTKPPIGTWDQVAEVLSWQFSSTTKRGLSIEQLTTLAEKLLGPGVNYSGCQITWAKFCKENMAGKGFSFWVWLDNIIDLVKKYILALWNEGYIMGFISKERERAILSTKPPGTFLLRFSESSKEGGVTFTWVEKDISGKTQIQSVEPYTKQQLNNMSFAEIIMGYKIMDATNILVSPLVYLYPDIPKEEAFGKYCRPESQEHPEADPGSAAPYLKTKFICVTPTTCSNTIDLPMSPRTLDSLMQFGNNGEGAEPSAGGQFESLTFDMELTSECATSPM

For `O=C1C=C(SCCO)C(=O)c2c(O)cccc21` [PD10, 8-Hydroxy-2-((2-hydroxyethyl)thio)naphthalene-1,4-dione], the inhibition at 500 µM was over 50%.
For `NS(=O)(=O)c1cccc2c1C(=O)C=C(SCCO)C2=O` [PD11, 6-((2-Hydroxyethyl)thio)-5,8-dioxo-5,8-dihydronaphthalene-1-sulfonamide], the inhibition at 500 µM was over 50%.
